Assay results from PubChem BioAssay AID449753 (NMMLSC, 2010).
Active and inactive are the calls of the source.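 How the source made its calls: active means EC50 under 30000 nM from a falling dose curve whose fit quality and slope passed set checks; inactive means the rest.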

System: S. cerevisiae aged culture, superoxide DHE fluorescence, 7 d
Assay: superoxide reduction in chronologically aged yeast, dose response, DHE fluorescence, primary hits (AID 449753)
Conditions: not given

| SMILES | EC50 |
| --- | --- |
| C=CCSc1nnc(-c2ccc([N+](=O)[O-])cc2)o1 | 2900 nM |
| [O-][n+]1c2ccccc2[n+]([O-])c2cc(O)ccc21 | 940 nM |
| CC(C)OC(=O)c1ccc2nc3ccccc3nc2c1 | 16700 nM |
| OCC[n+]1c2ccccc2nc2ccc(N3CCOCC3)cc21 | 3810 nM |
| CCC(=Nc1ccccc1O)C1=C(O)CC(c2ccccc2)CC1=O (stereo unspecified) | 1630 nM |
| COc1ccc2nc3ccccc3nc2c1N | 660 nM |
| CNC(=O)c1cccc2nc3ccccc3nc12 | 14500 nM |
| C#CCSc1nnc(-c2ccc([N+](=O)[O-])cc2)o1 | 4720 nM |
| C=C1C(O)[C@@H]2O[C@]3(CC[C@H](/C=C/C(C)[C@@H]4CC(C)=CC5(O[C@H](C[C@@](C)(O)C(=O)O)CCC5O)O4)O3)CC[C@H]2O[C@@H]1C(O)CC(C)[C@H]1OC2(CCCCO2)CCC1C (stereo partly specified) | 100 nM |
| C[C@]12CCC3C(CC[C@H]4C[C@H](O)CC[C@]34C)C1C[C@@H](CCCCl)[C@@H]2O (stereo partly specified) | 500 nM |
| COC(=O)c1cccc2nc3c(C(C)O)cccc3nc12 (stereo unspecified) | 1290 nM |
| FC(F)(F)c1nc2cc3nc4ccccc4[nH]c3cc2n1 | 210 nM |
| CC(C)(C)n1nc(-c2ccc(F)cc2)c2c(N)ncnc21 | 5170 nM |
| COc1ccc2c3c(cccc13)N(C)N=C2C | 7910 nM |
| Cc1ccc(-c2nn(C(C)(C)C)c3ncnc(N)c23)cc1 | 3030 nM |
| C[C@]12CCC3C(CC[C@H]4C[C@H](O)CC[C@]34C)C1CCC2=O (stereo partly specified) | 630 nM |
| CNc1ccc2nc3ccccc3[n+](C)c2c1 | 10100 nM |
| Nc1cc2nc3ccccc3nc2cc1N | 1850 nM |
| COc1ccc2c(c1)c1nnc(SC)nc1n2C | 3230 nM |
| CC(C)(C)n1nc(-c2ccc(Cl)cc2)c2c(N)ncnc21 | 4790 nM |
| c1ccc2nc3ccccc3nc2c1 | 440 nM |
| CC(C)(C)Nc1ncnc2c1cnn2-c1ccccc1 | 470 nM |
| O=C1c2c(O)ccc(O)c2C(=O)c2c(NCCNCCO)ccc(NCCNCCO)c21 | 5250 nM |
| Cn1c(O)c(C(=Nc2ccc(F)cc2)c2ccccc2Cl)c(=O)n(C)c1=O | 3140 nM (inactive) |
| c1ccc2[nH]c3cc4ncnc4cc3nc2c1 | 40 nM |

System: not listed separately
Assay: as above
Conditions: S. cerevisiae aged culture, superoxide DHE fluorescence, 7 d; at 30 µM (top of the series)

| SMILES | percent response (superoxide), lower = inhibition |
| --- | --- |
| N#CCc1nn(-c2ccccc2)c2ncnc(N)c12 | 96.7 (inactive) |
| O=C(/C=C/c1cccs1)NC(=S)NNC(=O)Cc1cccs1 | 121 (inactive) |
| O=C(Nc1ccc2nc3ccccc3nc2c1)c1ccc(Br)cc1 | 105 (inactive) |
| CCN(CC)C(=O)CSc1nnc(-c2cccc(OC)c2)o1 | 92.6 (inactive) |
| C=CCOn1c(=O)c(-c2cccs2)[n+]([O-])c2ccccc21 | 104 (inactive) |
| O=C(O)c1cnc2ccccc2n1 | 114 (inactive) |
| C[C@]12CCC3C(CC[C@H]4C[C@@H](O)CC[C@]34C)C1CC[C@@H]2OC(=O)[C@H](N)CCCCN (stereo partly specified) | 71.9 (inactive) |
| C[C@]12CCC3C(CC[C@H]4C[C@@H](O)CC[C@]34C)[C@H]1CC[C@H]2O (stereo partly specified) | 64.7 (inactive) |
| O=C(Nc1ccc2nc3ccccc3nc2c1)c1ccccc1 | 57.7 (inactive) |
| CC(=O)O[C@H]1CCC2C3CC[C@H]4[C@@H](O)[C@H](O)CC[C@]4(C)C3CC[C@@]21C (stereo partly specified) | 90.2 (inactive) |
| O=C(OCc1c(F)cccc1Cl)c1cnc2ccccc2n1 | 117 (inactive) |
| CN(C)CCNc1ncnc2c1cnn2-c1ccc(Cl)cc1 | 99.2 (inactive) |
| O=C(Nc1cccc(Cl)c1)Nc1ccc2nccnc2c1 | 87.1 (inactive) |
| O=C(/C=C/c1ccccc1)NC(=S)NNC(=O)Cc1cccs1 | 83 (inactive) |
| O=c1[nH]c(O)c(C=Nc2ccc(F)c(Cl)c2)c(=O)[nH]1 | 107 (inactive) |
| N#CC(c1nc2ccccc2nc1N1CCCC1)S(=O)(=O)c1ccccc1 (stereo unspecified) | 98.7 (inactive) |
| CC(=O)[C@@]1(O)CCC2C3CC[C@H]4C[C@@H](O)CC[C@]4(C)C3CC[C@@]21C (stereo partly specified) | 129 (inactive) |
| C#C[C@]1(O)[C@H](O)CC2C3CC[C@H]4C[C@@H](O)CC[C@]4(C)C3CC[C@@]21C (stereo partly specified) | 87.4 (inactive) |
| COc1ccc2nc3ccccc3nc2c1NC(=O)c1ccccc1Cl | 56.6 (inactive) |
| CCc1nc(NC(C)(C)C)c2cnn(-c3ccccc3)c2n1 | 88 (inactive) |
| CC(C)OC(=O)CSc1nnc(-c2ccc(Cl)cc2Cl)o1 | 112 (inactive) |
